Consider one molecule from patent publication US20120053235A1, “Dihydromyricetin as an IKK-beta inhibitor used for treatment of arthritis, cancer and autoimmune conditions, and other diseases or disorders” (HONG KONG BAPTIST UNIVERSITY, priority 2010, published 2012).

SMILES strings stand for the structures.

Series [1] deals with c-Fos nuclear translocation in human T lymphocytes. As to the kind of experiment: c-Fos nuclear translocation assay (Western blot). Type of series: cell-based. As to conditions: pretreated 1 hour, PMA plus ionomycin 120 minutes. On the procedure:
For c-Jun and c-Fos nuclear translocation assays, the human T lymphocytes (6×10^6/well) were pretreated with DMY for 1 hour, and then stimulated with 20 ng/ml PMA plus […] ionomycin for 120 minutes. After the cells were harvested and washed with PBS twice, the nuclear proteins of cells were then prepared using NucBuster™ Reagents. Afterwards, the washed cells were re-suspended using 60 μl NucBuster™ Reagent 1 per 30 μl of packed cells and processed twice by vortexing for 15 seconds, and followed by the incubation on ice for 5 minutes and second vortexing for 15 seconds, and finally centrifuged at 16000 g for 5 minutes. The supernatants containing cytoplasmic proteins were discarded; the cell pellets were re-suspended in 45 μl of NucBuster Extraction Reagent 2. The same vortexing, icing, and repeated vortexing steps were repeated once to prepare the nuclear proteins of the cells.
Protein concentrations were determined by using Bio-Rad Protein assay. Equal amounts of nuclear proteins or whole-cell lysates were analyzed by 10% SDS-PAGE. After electrophoresis, the proteins were electro-transferred to the nitrocellulose membranes. […]

The subject of series [2] is IL-2 production in human T-cell. The experiment in a line: IL-2 ELISA of culture supernatants of stimulated T cells. Type of series: cell-based. Also on record: dose or concentration left out as unconfirmed. As to conditions: DMY; P/I or anti-OKT-3/anti-CD28 for 48 hours; FIGS. 3A and 3B. The protocol: The cells (1×10^5/well) were incubated in the presence or absence of DMY for 2 hours at the indicated concentrations, and then the cells were stimulated with P/I or anti-OKT-3/anti-CD28 for 48 hours. The cell-free culture supernatants were collected, and then the concentration of IL-2 in the supernatants was determined by ELISA method.

In series [3] the test system is NF-κB nuclear translocation in human T lymphocytes. As to the kind of experiment: NF-κB nuclear translocation (p65 Western blot of nuclear proteins). The class given is cell-based. The settings on record: pretreated 1 hour, 20 ng/ml PMA plus 1 μM ionomycin 120 minutes; FIG. 6A. On the procedure: Human T lymphocytes (6×10^6/well) were pretreated with DMY for 1 hour, and subsequently stimulated with 20 ng/ml PMA plus 1 μM ionomycin for 120 minutes. The cells were then harvested and washed with PBS twice. The nuclear proteins of cells were prepared by using NucBuster™ Reagents (Novagen, USA). The washed cells were re-suspended using 60 μl NucBuster™ Reagent for […] of packed cells and processed twice by vortexing for 15 seconds, and followed by incubation on ice for 5 minutes and second vortexing for 15 seconds, and finally centrifuged at 16000 g for 5 minutes. The supernatants containing cytoplasmic protein were harvested, and then the cell pellets were re-suspended in 45 μl of NucBuster Extraction Reagent 2. The same vortexing, icing, and repeated vortexing procedures were repeated once to prepare the nuclear proteins of the cells.
Protein concentrations were determined by using Bio-Rad Protein assay. Equal amounts of nuclear proteins or whole-cell lysates were analyzed by 10% SDS-PAGE. After electrophoresis, the proteins were electro-transferred to the nitrocellulose membranes. After proteins were transferred, the membranes were blocked by 5% dried milk for 60 minutes and then washed three times for 5 min in each washing interval with Tris Buffered Saline with Tween 20 (TBS-T). […]

Series [4] relates to collagen II induced arthritis in female Wistar rats. The experiment in a line: Collagen II induced arthritis (CIA). The class given is in vivo. On the procedure:
Collagen II solution (collagen, 2 mg/ml in 0.05M acetic acid, Chondrex 20022, Redmond, Wash., USA) was emulsified with an equal volume of incomplete Freund's adjuvant (IFA, Chondrex 7002, Redmond, Wash., USA) at 4° C. using a high-speed homogenizer. In the experiment of CIA, DMY was encapsulated with HP-CD (1:8.48) and then dissolved in the normal saline with drug concentrations of 50 and 100 mg/kg body weight. Rats were intradermally injected at the base of the tail with 100 μl collagen/incomplete Freund's adjuvant (IFA) emulsion containing […] of collagen II by the use of a glass syringe equipped with a locking hub and a 27-G needle. On day 7 after the primary immunization, all the rats were given a booster injection of 100 μg of collagen II in IFA. On the day after the onset of arthritis (day 13), the CIA rats were exposed to a daily intraperitoneal administration of DMY (50 and 100 mg/kg) until day 30 of the study. DEX (0.1 mg/kg, one per day), MTX (3.75 mg/kg, twice per week), and indomethacin (1 mg/kg, one per day) were used as positive reference drugs. The rats were inspected daily from the onset of arthritis characterized by edema and/or erythema in the paws. The incidence and severity of arthritis were evaluated using an arthritic scoring system, and bi-hind paw volumes and body weight were measured every 2 days started on the day when the arthritic signs were firstly visible (day 13). In the arthritic scoring system, lesions (i.e., the clinical arthritic signs) of the four paws of each rat were graded from 0 to 4 according to the extent of both edema and erythema of the periarticular tissues. As such, 16 was the potential maximum of the combined arthritic scores per animal. The hind paw volumes were measured using a plethysmometer chamber (7140 UGO. Basile, Comerio, Italy) and expressed as the mean volume change of both hind paws of the rats. Body weight of the rats was monitored with a 0.1 g precision balance (Sartorius AG, Goettingen, Germany). On day 30, all rats were sacrificed with liver, spleen and thymus being collected and weighted. The organ index for a specific organ is equal to the ratio of the weight of that organ to a body weight of 100 g.

The mark [5] stands for this setting: CIA rats, daily intraperitoneal 50 and 100 mg/kg, day 13 to day 30, vs vehicle-treated, FIGS. 10A and B.

Regarding `O=C1c2c(O)cc(O)cc2O[C@H](c2cc(O)c(O)c(O)c2)[C@H]1O` [DMY, dihydromyricetin], the “nuclear translocation of c-Fos” value in series [1] was “suppress nuclear translocation”. Also, the “production of IL-2” value in series [2] is “suppress the production of IL-2”. Besides, the NF-κB nuclear translocation entry in series [3] is reported as “significantly suppressed”. Further, the “ameliorative effect compared with MTX” value in series [4] (CIA rats, DMY 100 mg/kg, MTX 3.75 mg/kg twice per week) is “better than that of MTX”. Also, in series [4] (setting [5]), the arthritic scores entry was “significantly reduced” and the hind paw volume entry is on record as “significantly reduced”. In addition, the “organ indexes of spleen and/or thymus” value in series [4] (rat, in vivo) is on record as “no adverse effect”.
